Series [1] concerns the target T1, Retinol-binding protein 4 (Homo sapiens, UniProt P02753). Briefly: Displacement of [3H]-retinol from human recombinant RBP4 by scintillation proximity assay.
The target in series [2] is T1, Retinol-binding protein 4. Briefly: Inhibition of human recombinant RBP4-transthyretin interaction by FRET analysis.
Series [3] in a line: Metabolic stability in rat liver microsomes assessed as compound remaining after 30 mins. In kind it is ADME. To be noted: read-out: Stability. (Liver microsomes are a subcellular fraction often used to study metabolism.)
Series [4] can be described thus: Clearance in rat at 0.5 mg/kg, iv. To be noted: in vivo. Also noted: dose 0.5 mg/kg, route intravenous. In kind it is ADME, organism-based.
Series [5] is described as follows: AUC in rat at 0.5 mg/kg, iv. In kind it is ADME, organism-based. The arrangement: dose 0.5 mg/kg, route intravenous. To be noted: plasma.
A short description of series [6]: Mean residence time in rat at 0.5 mg/kg, iv. In kind it is ADME, organism-based. The arrangement: dose 0.5 mg/kg, route intravenous. To be noted: in vivo.
Series [7] can be described thus: Volume of distribution at steady state in rat at 0.5 mg/kg, iv. In kind it is ADME, organism-based. The arrangement: dose 0.5 mg/kg, route intravenous. As to conditions: in vivo, read-out: Vdss.
Series [8] is described as follows: Cmax in mouse at 5 mg/kg, po. Type of series: ADME, organism-based. The arrangement: dose 5 mg/kg, route oral. As to conditions: in vivo.
The nature of series [9]: AUC in mouse at 5 mg/kg, po. Type of series: ADME, organism-based. The arrangement: dose 5 mg/kg, route oral. As to conditions: plasma.
Series [10] can be described thus: Mean residence time in mouse at 5 mg/kg, po. In kind it is ADME, organism-based. Also noted: dose 5 mg/kg, route oral. To be noted: in vivo.
For series [11], the system named is Liver microsome. Briefly: Drug metabolism in rat liver microsomes assessed as hydrolysis into primary urea. Type of series: ADME.
Series [12] deals with Liver microsome. In words: Drug metabolism in human liver microsomes assessed as hydrolysis primary urea. In kind it is ADME.
Series [13] can be described thus: Cmax in mouse at 30 mg/kg, po. In kind it is ADME, organism-based. Also noted: dose 30 mg/kg, route oral. To be noted: in vivo.
Series [14] is described as follows: AUC in mouse at 30 mg/kg, po. In kind it is ADME, organism-based. The arrangement: dose 30 mg/kg, route oral. To be noted: plasma.
Series [15] is described as follows: Mean residence time in mouse at 30 mg/kg, po. Type of series: ADME, organism-based. Also noted: dose 30 mg/kg, route oral. To be noted: in vivo.
The species entered for series [16] is Mus musculus. Briefly: Reduction in RBP4 level in chow-fed B6D2F1 mouse at 5 uM after 4 hrs. Type of series: functional, organism-based.
For series [17], the species on record is Mus musculus. In words: Reduction in retinol level in chow-fed B6D2F1 mouse at 5 uM after 4 hrs. Type of series: functional, organism-based.
The test system of series [18] is Liver microsome. Briefly: Drug metabolism in rat liver microsomes assessed as oxidation in pyridinyl piperazine region. In kind it is ADME.
In series [19] the test system is Liver microsome. Briefly: Drug metabolism in human liver microsomes assessed as oxidation in pyridinyl piperazine region. Type of series: ADME.
For series [20], the species on record is Mus musculus. In words: Reduction in RBP4 level in chow-fed B6D2F1 mouse after 4 hrs. In kind it is functional, organism-based.
The species named for series [21] is Mus musculus. Briefly: Reduction in retinol level in chow-fed B6D2F1 mouse after 4 hrs. In kind it is functional, organism-based.

The source made the active and inactive calls. No cut-off for these calls is given here.

As a reminder, the IC50 is the midpoint of a concentration-inhibition curve. In the case of `O=C(c1cccc(C(F)(F)F)c1)N1CCC(c2ccccc2C(F)(F)F)CC1`, the values for the IC50 in series [1] and in series [2] were 920 nM and 2700 nM, respectively.

As for `COC(=O)c1cccc(C(=O)N2CCC(c3ccccc3C(F)(F)F)CC2)c1`, the IC50 in [1] came to 830 nM; in [2], 600 nM.

For `O=C(c1cc(C(F)(F)F)[nH]n1)N1CCC(c2ccccc2C(F)(F)F)CC1`, the IC50 in [1] is 240 nM; in series [2], 120 nM.

For `COc1ccc(Cl)cc1NC(=O)N1CCN(c2ncccc2C(F)(F)F)CC1C` (stereo unspecified), the results for the IC50 in series [1] and in series [2] were 450 nM and 350 nM, respectively.

As to `COc1ccc(Cl)cc1NC(=O)N1CCN(c2ccccc2Cl)C(=O)C1`, the IC50 in [1] was determined as 3600 nM.

Regarding `O=C(Cc1ccccc1C(F)(F)F)N1CCN(c2ncnc3sc4c(c23)CCC4)CC1`, the IC50 in series [1] worked out at 280 nM; in series [2] it was 60 nM.

Regarding `FC(F)(F)c1cccc(CN2CCN(c3ncccc3C(F)(F)F)CC2)c1`, the figures for the IC50 in [1] and in series [2] were > 30000 nM and > 10000 nM, respectively.

Turning to `COc1ccc(Cl)cc1NC(=O)N1CCN(c2ccccc2)CC1`, in series [1], the IC50 came out at 30000 nM.

Turning to `COc1ccc(Cl)cc1NC(=O)N1CCN(c2ccccc2C(F)(F)F)CC1`, the IC50 in series [1] came out at 70 nM; in series [2], 17 nM.

Take `COc1ccc(Cl)cc1NC(=O)N1CCCN(c2ncccc2C(F)(F)F)CC1`: the IC50 in [1] amounted to 480 nM; in [2] it was 670 nM.

Regarding `COc1ccc(Cl)cc1NC(=O)N1CCN(c2ncc(C(F)(F)F)cc2C(F)(F)F)CC1`, the IC50 in series [1] stood at 2200 nM.

Take `COc1ccc(Cl)cc1NC(=O)N1CCN(CCc2ccccc2)CC1`: the IC50 in series [1] and in [2] was > 30000 nM in each case.

In the case of `O=C(c1cnccc1C(F)(F)F)N1CCC(c2ccccc2C(F)(F)F)CC1`, the figures for the concentration for half-maximal inhibition (IC50) in series [1] and in series [2] were 130 nM and 76 nM, respectively.

The clearance is the volume of plasma or blood freed of the substance per unit of time. A lower clearance goes with inefficient removal. As usually defined, the AUC is concentration integrated over time. Read a high AUC as more exposure. Broadly, the MRT is the average time that molecules of a dose stay in the body. In general, Cmax refers to the maximum level reached in the sampled fluid or tissue. For the molecule `O=C(O)c1ccccc1NC(=O)N1CCN(c2ncccc2C(F)(F)F)CC1`, the remaining at 0.5 h in series [3] worked out at 51%. The molecule also showed a clearance in series [4] of 1.67 mL/min/kg. The AUC is 5080 ng·h/mL in series [5] and 3650 ng·h/mL in series [9]. The MRT came to 2.6 h in [6] and 3.2 h in [10]. The Vd in [7] came to 0.26 L/kg. Also, the Cmax in series [8] was determined as 1000 ng/mL. The Drug metabolism entry with Liver microsome [11] and with Liver microsome [12] was “metabolite_notdetected” throughout.

Regarding `FC(F)(F)c1cccc(CN2CCN(c3ncnc4sc5c(c34)CCC5)CC2)c1`, the 50% inhibitory concentration (IC50) in series [1] came out at 600 nM; in [2], 24 nM.

`COc1ccc(Cl)cc1NC(=O)N1CCN(Cc2c(Cl)cccc2Cl)CC1`: the values for the IC50 in series [1] and in series [2] were 4500 nM and 7500 nM, respectively.

On to `COc1ccc(Cl)cc1NC(=O)N1CCN(C)CC1`, for which, in series [1], the IC50 is > 30000 nM.

On to `CC1=C(/C=C/C(C)=C/C=C/C(C)=C/C(=O)Nc2ccc(O)cc2)C(C)(C)CCC1` [FENRETINIDE], for which the remaining at 0.5 h in [3] was 67%. In addition, the clearance in series [4] is 5 mL/min/kg. The AUC in series [5] stood at 1660 ng·h/mL; in series [14], 1210 ng·h/mL. Also, the MRT in series [6] was 10.5 h; in series [15], 35 h. In addition, the Vd in series [7] was 3.2 L/kg. Also, the concentration in series [13] peaked (Cmax) at 65 ng/mL. Further, the result in the series filed under Mus musculus [16] and in the series filed under Mus musculus [17] was Active.

With `COC(=O)c1ccccc1NC(=O)N1CCC(c2ccccc2C(F)(F)F)CC1`, the IC50 was 91 nM in series [1] and 18 nM in series [2].

Turning to `COc1ccc(Cl)cc1NC(=O)N1CCN(c2ccccn2)CC1`, the IC50 in [1] and in series [2] was > 30000 nM throughout.

With `O=C(c1nccs1)N1CCC(c2ccccc2C(F)(F)F)CC1`, the results for the IC50 in [1] and in series [2] were 51 nM and 3 nM, respectively.

For `FC(F)(F)c1ccnc(N2CCC(c3ccccc3C(F)(F)F)CC2)n1`, the IC50 came out at 270 nM in [1] and 28 nM in series [2].

On to `COc1ccc(Cl)cc1NC(=O)N1CCN(c2ncccc2Cl)CC1`, for which, in series [1], the IC50 was 2500 nM.

`COc1ccc(Cl)cc1NC(=O)N1CCN(c2ccccc2Cl)CC1`: the IC50 was 890 nM in series [1] and 1300 nM in series [2].

Regarding `Cn1cncc1C(=O)N1CCC(c2ccccc2C(F)(F)F)CC1`, the IC50 came to 840 nM in series [1] and 550 nM in [2].

As to `COc1ccc(Cl)cc1NC(=O)N1CCN(c2ncnc3sc4c(c23)CCC4)CC1`, the IC50 in series [1] stood at 360 nM; in series [2] it was 600 nM.

`COc1ccc(Cl)cc1C(=O)N1CCN(c2ncnc3sc4c(c23)CCC4)C(C)C1` (stereo unspecified): the IC50 stood at 830 nM in series [1] and 1480 nM in series [2].

Take `O=C(c1ccco1)N1CCC(c2ccccc2C(F)(F)F)CC1`: the IC50 amounted to 120 nM in series [1] and 52 nM in series [2].

A word on the EC50: it is the concentration at which the effect is half-maximal. Low readings indicate greater potency, high ones weaker potency. For `O=C(O)c1ccccc1NC(=O)N1CCC(c2ccccc2C(F)(F)F)CC1`, the remaining at 0.5 h in series [3] was > 90%. In series [4], the clearance was 0.0833 mL/min/kg. Also, the results for the AUC in series [5] and in series [9] were 10700 ng·h/mL and 17200 ng·h/mL, respectively. Further, the MRT in series [6] amounted to 9.7 h; in [10], 5.4 h. The Vd in [7] is 0.045 L/kg. Moreover, the Cmax in [8] was found to be 2950 ng/mL. Moreover, the Drug metabolism result with Liver microsome [18] and with Liver microsome [19] was “metabolite_notdetected” each time. Further, the Activity entry in the series filed under Mus musculus [20] and in the series filed under Mus musculus [21] was “Dose-dependent effect” throughout. Moreover, the EC50 in the series filed under Mus musculus [20] (B6D2F1, 4 h) worked out at 980 nM; in the series listed under Mus musculus [21] (B6D2F1, 4 h), 1100 nM.

Consider `COc1ccc(Cl)cc1NC(=O)N1CCN(c2ncccc2C(F)(F)F)CC1`, for which the IC50 is 230 nM in series [1] and 130 nM in [2]. Moreover, the remaining at 0.5 h in series [3] was found to be 1%. The Drug metabolism result with Liver microsome [18], with Liver microsome [11], in the series on Liver microsome [12] and in the series on Liver microsome [19] was “metabolite_detected” each time.

As to `O=C(Cc1ccccc1C(F)(F)F)N1CCN(c2ncccc2C(F)(F)F)CC1`, the IC50 is 3610 nM in series [1] and > 10000 nM in [2].

Consider `COc1ccc(Cl)cc1NC(=O)C1CCN(c2ncccc2C(F)(F)F)CC1`, for which the IC50 in series [1] was determined as 1100 nM.

For `Cn1cnc(C(=O)N2CCC(c3ccccc3C(F)(F)F)CC2)c1`, the IC50 is 110 nM in series [1] and 17 nM in series [2].

As for `COc1ccc(Cl)cc1NC(=O)N1CCC(c2ccccc2C(F)(F)F)CC1`, the results for the IC50 in [1] and in [2] were 160 nM and 23 nM, respectively.

Regarding `O=C(c1cn(Cc2ccccc2)cn1)N1CCN(c2ccccc2Cl)CC1`, the IC50 in series [1] was 440 nM.

The record behind these values is ChEMBL document CHEMBL3286122, “Structure-assisted discovery of the first non-retinoid ligands for Retinol-Binding Protein 4” (Bioorg Med Chem Lett, 2014).
